PubChem BioAssay (NCI)
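Protocol summary: plate cells (96-well), add compound at 5 concentrations, incubate 48 h, interpolate endpoints linearly. TGI is the concentration that stops growth completely.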

Assays:
Assay in all cases: NCI anticancer screen, dose series, 48 h
786-0 renal = tested on: 786-0 renal
T-47D breast = tested on: T-47D breast
A549 NSCLC = tested on: A549 NSCLC
SK-OV-3 ovarian = tested on: SK-OV-3 ovarian
OVCAR-5 ovarian = tested on: OVCAR-5 ovarian
RXF 393 renal = tested on: RXF 393 renal
KM12 colon = tested on: KM12 colon
CAKI-1 renal = tested on: CAKI-1 renal
A498 renal = tested on: A498 renal
IGROV1 ovarian = tested on: IGROV1 ovarian
NCI-H226 lung = tested on: NCI-H226 lung
HT29 colon = tested on: HT29 colon
DU-145 prostate = tested on: DU-145 prostate
TK-10 renal = tested on: TK-10 renal
HCT-15 colon = tested on: HCT-15 colon
SNB-19 CNS = tested on: SNB-19 CNS
HCC-2998 colon = tested on: HCC-2998 colon
ACHN renal = tested on: ACHN renal
M14 melanoma = tested on: M14 melanoma
K-562 leukemia = tested on: K-562 leukemia
UACC-62 melanoma = tested on: UACC-62 melanoma
NCI/ADR-RES ovarian = tested on: NCI/ADR-RES ovarian
SN12C renal = tested on: SN12C renal
MOLT-4 leukemia = tested on: MOLT-4 leukemia
MDA-MB-435 = tested on: MDA-MB-435
UO-31 renal = tested on: UO-31 renal
SF-539 CNS = tested on: SF-539 CNS
HOP-92 NSCLC = tested on: HOP-92 NSCLC
NCI-H460 lung = tested on: NCI-H460 lung
SR leukemia = tested on: SR leukemia
OVCAR-8 ovarian = tested on: OVCAR-8 ovarian
UACC-257 melanoma = tested on: UACC-257 melanoma
MDA-N = tested on: MDA-N
MCF7 breast = tested on: MCF7 breast
OVCAR-4 ovarian = tested on: OVCAR-4 ovarian
HOP-62 NSCLC = tested on: HOP-62 NSCLC
SF-295 CNS = tested on: SF-295 CNS
COLO 205 colon = tested on: COLO 205 colon
CCRF-CEM leukemia = tested on: CCRF-CEM leukemia
NCI-H522 lung = tested on: NCI-H522 lung
NCI-H23 lung = tested on: NCI-H23 lung
PC-3 prostate = tested on: PC-3 prostate
SK-MEL-28 melanoma = tested on: SK-MEL-28 melanoma
SF-268 CNS = tested on: SF-268 CNS
MDA-MB-231 breast = tested on: MDA-MB-231 breast
OVCAR-3 ovarian = tested on: OVCAR-3 ovarian
U251 CNS = tested on: U251 CNS
MALME-3M melanoma = tested on: MALME-3M melanoma
BT-549 breast = tested on: BT-549 breast
SW-620 colon = tested on: SW-620 colon
HCT-116 colon = tested on: HCT-116 colon

Measured: TGI

Cc1ccc2c(n1)NC(=O)C(Cc1ccccc1)(N=[N+]=[N-])C2=O (stereo unspecified)
> 100 µM: all assays above
